# Measured values as given in EP0819136B1, “MDP DERIVATIVES AND CONJUGATES HAVING HAEMATOPOIETIC FUNCTION STIMULATING ACTIVITY, AND COMPOSITIONS CONTAINING SAME” (VACSYN S.A., priority 1995, dated 1996).
# What was measured:
# myélocytes circulants = assay: Circulating myelocytes 24 h after 4 daily oral administrations of AZT and/or Muradimétide (Example 4, Table 3); format: in vivo, souris; conditions: for Nbre de myélocytes circulants: 24 h after 4 daily administrations
# Protocol: Le tableau 3 ci-dessous et la figure 11 indiquent l'effet d'un traitement per os des souris avec du Muradimétide avant, en même temps ou après l'AZT administré à 50 mg par kg, sur le nombre de myélocytes circulants testés 24 heures après 4 administrations quotidiennes. Tableau 3
# Le nombre moyen de myélocytes circulant avant le traitement se situe entre 3 et 15 X 10^4 cellules par ml dans les 5 groupes.
# La « P-value » a été calculée par le test Mann Whitney U Rank.
# NS signifie que la différence n'est pas significative. Ce tableau confirme que l'augmentation des myélocytes circulants est d'environ 200 quand il y a effet conjoint de l'AZT et du Muradimétide. Les deux constituants de la combinaison ont été administrés per os soit simultanément soit à des temps séparés.
# CSH = CSH mobilisation in cyclophosphamide-treated mice after oral AZT, MDM or both (Example 6, figure 13); format: in vivo, souris; conditions: cyclophosphamide 200 mg/kg s.c. day 0; oral MDM 25 mg/kg alone days 0, 1, 2, 3
# Protocol: La figure 13 représente une expérience similaire sur des souris normales qui ont préalablement reçu un traitement par une drogue cytotoxique : la cyclophosphamide.
# L'effet du traitement ci-dessus pour compenser l'effet cytotoxique des chimiothérapies a été étudié en traitant les souris par le cyclophosphamide.
# Les souris traitées par une simple injection sous-cutanée de cyclophosphamide (dose de 200 mg/kg) au jour 0 ont été ensuite divisées entre 4 groupes et ont reçu oralement, outre de l'eau physiologique (X), de l'AZT à 50 mg/kg (□), du MDM à 25 mg/kg (Δ) ou du mélange de ceux-ci (O). Le traitement oral a été effectué aux jours 0, 1, 2 et 3 et les numérations cellulaires ont été évaluées jusqu'à 14 jours après le commencement du traitement. Les résultats sont indiqués dans la figure 13. Là-encore, il apparaît évident qu'une très forte mobilisation a lieu surtout en présence du mélange d'AZT et de MDM.
smiles,measurement,setting,value
"COC(=O)CC[C@@H](NC(=O)[C@H](C)NC(=O)[C@@H](C)O[C@H]1[C@H](O)[C@@H](CO)OC(O)[C@@H]1NC(C)=O)C(=O)OC (stereo partly drawn) [Muradimétide, Nac-Mur-L-Ala-D-Glu-[OCH3]-OCH3]",Nbre de myélocytes circulants,myélocytes circulants; AZT 50mg/Kg p.o. at 0 h + Muradimetide 25mg/Kg p.o. at 0 h,215 ± 51 x 10^4/ml
same,Nbre de myélocytes circulants,myélocytes circulants; AZT 50mg/Kg p.o. at 0 h + Muradimetide 25mg/Kg p.o. at -4 h,194 ± 50 x 10^4/ml
same,Nbre de myélocytes circulants,myélocytes circulants; AZT 50mg/Kg p.o. at -4 h + Muradimetide 25mg/Kg p.o. at 0 h,187 ± 42 x 10^4/ml
same,Nbre de myélocytes circulants,myélocytes circulants; Muradimetide 25mg/Kg p.o. alone at 0 h,17 ± 15 x 10^4/ml
same,augmentation des myélocytes circulants,"myélocytes circulants; joint effect of AZT 50 mg/kg and Muradimétide 25 mg/kg p.o., simultaneously or at separate times",~200
same,numération des neutrophiles circulants,CSH,effet similaire mais nettement moins marqué
